Target: T1, Pol δ (Saccharomyces cerevisiae, UniProt P15436)
T1 sequence (P15436 1-1097): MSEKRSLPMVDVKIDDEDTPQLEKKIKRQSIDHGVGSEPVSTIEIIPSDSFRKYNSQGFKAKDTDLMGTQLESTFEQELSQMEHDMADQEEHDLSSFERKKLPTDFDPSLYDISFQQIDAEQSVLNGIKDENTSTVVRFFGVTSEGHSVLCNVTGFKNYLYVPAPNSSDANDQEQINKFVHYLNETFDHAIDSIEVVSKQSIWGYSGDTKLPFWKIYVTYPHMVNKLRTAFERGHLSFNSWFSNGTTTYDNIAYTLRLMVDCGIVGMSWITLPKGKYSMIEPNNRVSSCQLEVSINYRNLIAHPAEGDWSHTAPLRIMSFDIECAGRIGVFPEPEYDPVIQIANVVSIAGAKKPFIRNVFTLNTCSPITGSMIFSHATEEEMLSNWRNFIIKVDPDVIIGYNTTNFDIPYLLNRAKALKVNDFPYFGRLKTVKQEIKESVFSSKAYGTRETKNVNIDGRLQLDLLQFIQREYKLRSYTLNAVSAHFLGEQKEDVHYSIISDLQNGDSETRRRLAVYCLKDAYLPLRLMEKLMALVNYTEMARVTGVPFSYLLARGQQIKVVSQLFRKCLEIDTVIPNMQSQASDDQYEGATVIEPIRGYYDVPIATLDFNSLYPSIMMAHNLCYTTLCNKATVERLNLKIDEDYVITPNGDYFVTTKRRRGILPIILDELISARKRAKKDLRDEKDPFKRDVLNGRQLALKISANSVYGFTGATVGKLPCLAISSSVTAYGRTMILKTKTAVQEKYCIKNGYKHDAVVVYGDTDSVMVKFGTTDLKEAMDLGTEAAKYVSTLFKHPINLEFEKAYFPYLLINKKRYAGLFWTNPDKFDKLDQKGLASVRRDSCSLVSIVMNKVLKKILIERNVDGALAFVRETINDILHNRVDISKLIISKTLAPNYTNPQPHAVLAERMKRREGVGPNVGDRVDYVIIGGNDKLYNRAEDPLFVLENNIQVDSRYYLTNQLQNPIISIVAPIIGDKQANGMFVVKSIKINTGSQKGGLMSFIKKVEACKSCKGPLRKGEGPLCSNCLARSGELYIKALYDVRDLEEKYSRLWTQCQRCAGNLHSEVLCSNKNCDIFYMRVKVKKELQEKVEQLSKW
T1 sequence (P46957 1-487 partner): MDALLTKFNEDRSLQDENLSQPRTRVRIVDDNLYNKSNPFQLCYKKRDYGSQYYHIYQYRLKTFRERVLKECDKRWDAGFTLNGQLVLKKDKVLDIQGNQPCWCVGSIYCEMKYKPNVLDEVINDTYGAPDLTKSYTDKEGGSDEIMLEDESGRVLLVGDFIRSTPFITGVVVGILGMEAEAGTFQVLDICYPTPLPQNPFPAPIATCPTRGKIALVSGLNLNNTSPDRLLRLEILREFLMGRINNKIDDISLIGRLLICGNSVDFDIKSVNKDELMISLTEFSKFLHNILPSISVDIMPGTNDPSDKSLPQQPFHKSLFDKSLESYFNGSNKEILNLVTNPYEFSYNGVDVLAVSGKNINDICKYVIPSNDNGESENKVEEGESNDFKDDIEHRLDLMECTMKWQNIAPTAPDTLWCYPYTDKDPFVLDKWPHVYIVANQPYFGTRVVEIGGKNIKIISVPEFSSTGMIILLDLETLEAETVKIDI
T1 sequence (P47110 1-350 partner): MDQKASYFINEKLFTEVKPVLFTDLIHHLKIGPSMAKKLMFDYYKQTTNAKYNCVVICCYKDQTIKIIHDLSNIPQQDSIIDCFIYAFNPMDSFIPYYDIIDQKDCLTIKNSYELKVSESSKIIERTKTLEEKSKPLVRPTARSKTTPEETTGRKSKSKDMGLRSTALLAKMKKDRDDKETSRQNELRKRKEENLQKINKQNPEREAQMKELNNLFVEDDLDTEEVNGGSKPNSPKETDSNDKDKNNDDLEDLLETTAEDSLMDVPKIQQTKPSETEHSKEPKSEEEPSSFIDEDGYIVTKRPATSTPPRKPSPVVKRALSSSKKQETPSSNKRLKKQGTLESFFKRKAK
Experiment: UV-Vis
Format: binding
Details: CysB site of Pol3; as isolated from yeast

Structure (SMILES): [S]12[Fe]3[S]4[Fe]1[S]1[Fe]2[S]3[Fe]41 [[4Fe-4S] cluster]
- mol non-heme iron and acid-labile sulfide ions per mol Pol δ: ~ 4 mol/mol
